The results in this text go back to publication PMC7738880, “Identification of novel CD44v6-binding peptides that block CD44v6 and deliver a pro-apoptotic peptide to tumors to inhibit tumor growth and metastasis in mice” (Theranostics, 2021).

Residues, ends and D or L forms follow the SMILES beside them.

For experiment [1], the system named is CD44v6-high cells (MDA-MB231, 4T1, Panc-1) versus CD44v6-low MCF7 cells. The experiment in a line: Immunofluorescence microscopy and flow cytometry of FITC-peptide cell binding. Format: cell-based. Conditions: FITC-labeled peptide 25 µM, 4 °C, 1 h. As for the experimental part: Cells were seeded in each well of an 8-well chamber slide at a density of 1 × 10^5 cells per well, incubated overnight, and then treated with 1% BSA at room temperature for 1 h. Subsequently, the cells were incubated with FITC-conjugated peptides (25 µM) at 4 °C for 1 h, blocked with BSA, fixed, and incubated with an anti-human CD44v6 mouse monoclonal antibody (clone no. VFF-7, 1:100 dilution; Santa Cruz Biotechnology, Dallas, TX) or a rabbit anti-CD44v6 polyclonal antibody (1:100 dilution; Merck). The cells were then incubated with an Alexa Fluor 594-labeled goat anti-mouse IgG or goat anti-rabbit IgG secondary antibodies (Merck). After incubation, the cells were counterstained with 4ʹ,6-diamidino-2-phenylindole (DAPI, Sigma-Aldrich, St. Louis, MI), mounted with ProLong antifade reagent (Thermo Fischer Scientific), and observed under a confocal microscope (Zeiss, Jena, Germany).
Cells (1 × 10^5 cells) were harvested and suspended in culture medium containing 1% BSA for 1 h, followed by an incubation with FITC-labeled peptides (25 µM) at 4 °C for 1 h. After washing, the cells were analyzed using a FACSCalibur flow cytometer (BD, Franklin Lakes, NJ). […]
Background: Flow cytometry measures light scatter and fluorescence of single cells or particles in a stream.

Another experiment deals with c-Met in MDA-MB231 cells. The experiment in a line: HGF-induced c-Met internalization (confocal microscopy). Format: cell-based, human. Particulars: peptide pre-treatment 10 min, HGF 25 ng/mL 30 or 60 min. Here is the method: To examine the internalization of CD44v6, 1 × 10^5 MDA-MB231 cells were seeded in each well of an 8-well chamber slide and cultured for 24 h. Next, the cells were incubated with a fresh culture medium containing FITC-labeled peptides (10 μM) at 37 °C for 10, 30, and 60 min and then stained with an anti-human CD44v6 mouse monoclonal antibody (clone no. VFF-7; Santa Cruz Biotechnology). The cells were then incubated with an Alexa Fluor 594-labeled goat anti-mouse IgG secondary antibody (Merck). To examine the internalization of c-Met, cells were incubated with recombinant human HGF at 25 ng/mL (R&D Systems, Minneapolis, MN) for 30 or 60 min with or without pre-treatment with peptides (20 µM) for 10 min. After incubation, the cells were stained with an anti-Met rabbit polyclonal antibody (clone no. C-28, 1:100 dilution; Santa Cruz Biotechnology). The cells were then incubated with an Alexa Fluor 594-labeled goat anti-rabbit IgG secondary antibody (Merck). For nuclear staining, the cells were incubated with DAPI and the ProLong antifade reagent before observation under a confocal microscope (Zeiss).

Experiment [2] relates to CD44v6-knockdown MDA-MB231 cells. The experiment in a line: Peptide binding to CD44v6-knockdown cells (flow cytometry). Format: cell-based, human. Conditions: FITC-labeled peptide 25 µM, MDA-MB231, siRNA knockdown 24 h. Here is the method: Cells (1 × 10^5 cells) were harvested and suspended in culture medium containing 1% BSA for 1 h, followed by an incubation with FITC-labeled peptides (25 µM) at 4 °C for 1 h. After washing, the cells were analyzed using a FACSCalibur flow cytometer (BD, Franklin Lakes, NJ). For competition assays, cells were incubated with 5 µg/mL of an anti-human CD44v6 mouse monoclonal antibody (clone no. VFF-18, 1:100 dilution; Abcam, Cambridge, MA) and anti-human CD44 monoclonal antibody (clone no. 156-3C11, 1:100 dilution; ThermoFisher Scientific) for 1 h to compete with peptide binding, followed by an incubation with FITC-labeled peptides (10 µM) before analysis on a flow cytometer (BD). In another set of assays, cells were incubated with peptides (50 µM) for 1 h to compete with antibody binding, followed by an incubation with 5 µg/mL of the anti-human CD44v6 mouse monoclonal antibody for 1 h, The cells were then incubated with an Alexa Fluor 488-labeled goat anti-mouse IgG secondary antibody (Merck) before analysis on a flow cytometer (BD).
CD44v6 gene expression was knocked down using CD44v6 small interfering RNAs (siRNAs) as previously described. Two CD44v6-specific siRNAs (v6-1: 5ʹ-AGU ACA ACG GAA ATT-3ʹ and v6-2: 5ʹ-GGA UAU CGC CAAACA CCC ATT-3ʹ) were synthesized by Bioneer (Daejeon, Korea). Control siRNA (5ʹ-CUA CGC CAA UUU CGU (dTdT)-3ʹ) were purchased from Bioneer. […]

The next experiment has as its system Panc-1 cells. The experiment can be described thus: Saturation cell binding assay, Panc-1. Set-up: species or system human. Particulars: biotin-labeled peptide 0-256 µM, 4 °C, 1 h. As for the experimental part: Supplementary Information
Supplementary Materials and Methods
Saturation binding assays to determine the cellular binding affinities of peptides Cells (5 × 10^3 cells per well in a 96-well plate) were incubated with 1% bovine serum albumin (BSA) for 30 min and with different concentrations of biotin-labeled peptides (0, 2, 4, 8, 16, 32, 64, 128, and 256 µM) at 4 °C for 1 h. After washing, the cells were incubated with horseradish peroxidase-conjugated neutravidin (1:10,000 dilution; ThermoFisher Scientific, Waltham, MA) for 30 min at room temperature. Enzymatic activity was detected using a 3,3ʹ,5,5ʹ-tetramethylbenzidine substrate (ThermoFisher Scientific), and the reaction was stopped using 2 M sulfuric acid. The absorbance at 450 nm was measured in each well using a microplate reader (Tecan, Mannedorf, Switzerland). The KD values were then calculated using GraphPad Prism 6 software (GraphPad Inc., La Jolla, CA). […]
10 µM biotin-labeled CD44v6-binding peptides at 4 °C for 1 h. […]
Scientific) for 30 min at room temperature. […]

In general, Kd refers to the constant that tells how readily two partners part at equilibrium. Low readings indicate tighter binding, high ones weaker binding. As to `CC[C@H](C)[C@H](NC(=O)[C@@H](NC(=O)[C@H](CC(N)=O)NC(=O)[C@H](CC(C)C)NC(=O)[C@H](CC(N)=O)NC(=O)[C@@H](N)CS)[C@@H](C)O)C(=O)N[C@@H](CC(=O)O)C(=O)N[C@H](C(=O)N[C@@H](CS)C(=O)O)[C@@H](C)O` [NLN] (H-CNLNTIDTC-OH; N-terminus and C-terminus assumed), the “cellular binding, CD44v6-high versus CD44v6-low cells” value in experiment [1] is recorded as “bound selectively to CD44v6-high cells”. In addition, the “HGF-induced internalization of c-Met” value with c-Met in MDA-MB231 cells is reported as “inhibited”. In experiment [2], the “decrease of cellular binding to CD44v6-knockdown cells compared with wild-type cells” value was 6-7 fold. Binding in the experiment with Panc-1 cells was characterised by a dissociation constant (Kd) of 8 ± 5 µM.
Taken in the same sequence, the figures for `CC(C)C[C@H](NC(=O)[C@H](CCC(N)=O)NC(=O)[C@H](Cc1c[nH]c2ccccc12)NC(=O)[C@H](CCC(=O)O)NC(=O)[C@H](CC(N)=O)NC(=O)[C@@H](N)CS)C(=O)N[C@@H](CCCCN)C(=O)N[C@@H](CO)C(=O)N[C@@H](CS)C(=O)O` [NEW] (H-CNEWQLKSC-OH; N-terminus and C-terminus assumed) were “bound selectively to CD44v6-high cells”, “inhibited”, 6-7 fold and 7 ± 3 µM.
